From patent US7410963B2, “Benzo-1,4-diazepin-2-one derivatives as phosphodiesterase PDE2 inhibitors, preparation and therapeutic use thereof” (VIA Pharmaceuticals, Inc., priority 2003, dated 2008)

target: T1, PDE2 (Bos taurus, UniProt P14099); test: Radioenzymatic phosphodiesterase assay: PDE2 inhibition; type: biochemical, bovine; details: Table 1; 10 μM test compound
T1 sequence (P14099 1-921): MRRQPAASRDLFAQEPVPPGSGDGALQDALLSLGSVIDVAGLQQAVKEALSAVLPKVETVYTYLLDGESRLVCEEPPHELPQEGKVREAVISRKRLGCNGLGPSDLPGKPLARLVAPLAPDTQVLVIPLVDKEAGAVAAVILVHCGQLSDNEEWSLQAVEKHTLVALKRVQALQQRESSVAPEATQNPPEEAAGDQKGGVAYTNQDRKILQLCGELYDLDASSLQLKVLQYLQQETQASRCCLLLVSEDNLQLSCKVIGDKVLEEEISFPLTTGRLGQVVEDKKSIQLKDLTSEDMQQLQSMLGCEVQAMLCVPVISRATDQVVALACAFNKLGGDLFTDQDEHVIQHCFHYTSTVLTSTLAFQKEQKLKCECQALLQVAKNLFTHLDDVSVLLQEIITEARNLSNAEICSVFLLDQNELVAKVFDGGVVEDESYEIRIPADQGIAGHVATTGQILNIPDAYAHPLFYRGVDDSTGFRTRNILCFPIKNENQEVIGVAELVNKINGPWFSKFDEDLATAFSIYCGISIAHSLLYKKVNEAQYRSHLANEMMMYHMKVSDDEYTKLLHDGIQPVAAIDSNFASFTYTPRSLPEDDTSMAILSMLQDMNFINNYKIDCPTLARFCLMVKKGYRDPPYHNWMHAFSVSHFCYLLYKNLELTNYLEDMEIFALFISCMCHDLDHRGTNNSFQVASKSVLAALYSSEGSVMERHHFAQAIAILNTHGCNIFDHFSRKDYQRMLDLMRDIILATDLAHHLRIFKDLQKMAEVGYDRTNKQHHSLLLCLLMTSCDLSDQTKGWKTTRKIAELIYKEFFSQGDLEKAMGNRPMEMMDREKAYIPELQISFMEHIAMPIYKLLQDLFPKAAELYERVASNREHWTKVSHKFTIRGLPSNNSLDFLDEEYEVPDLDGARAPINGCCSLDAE
Method: Nucleoside radioactivity was determined by liquid scintillation.

SMILES | PDE2 percentage of inhibition at 10 μM [%]
COc1ccc(-c2ccc3c(c2)C(c2cccc(C(N)=O)c2)=NCC(=O)N3C)c(OC)c1 [Example 33, 3-[7-(2,4-Dimethoxy-phenyl)-1-methyl-2-oxo-2,3-dihydro-1H-benzo[e][1.4]diazepin-5-yl]-benzamide] | 99
COc1cc2c(cc1-c1ccc(C(N)=O)cc1)C(c1cccc(C(N)=O)c1)=NCC(=O)N2 [Example 34, 3-[8-Methoxy-7-(4-benzamide)-2-oxo-2,3-dihydro-1H-benzo[e][1,4]diazepin-5-yl]-benzamide] | 98

same assay, conditions: Table 1; 10 μM test compound; read-out: PDE2 percentage of inhibition at 10 μM

SMILES | inhibition at 10 µM [%]
COc1ccc(-c2cc3c(cc2OC)N(C)C(=O)CN=C3c2cccc(C#N)c2)cc1 [Example 4, 3-[8-Methoxy-7-(4-methoxy-phenyl)-1-methyl-2-oxo-2,3-dihydro-1H-benzo[e][1,4]diazepin-5-yl]-benzonitrile] | 97
COc1cc2c(cc1-c1ccccc1Cl)C(c1cccc(C#N)c1)=NCC(=O)N2C [Example 5, 3-[7-(2-Chloro-phenyl)-8-methoxy-1-methyl-2-oxo-2,3-dihydro-1H-benzo[e][1,4]diazepin-5-yl]-benzonitrile] | 98
COc1cc2c(cc1-c1ccco1)C(c1cccc(C#N)c1)=NCC(=O)N2C [Example 8, 3-(7-Furan-2-yl-8-methoxy-1-methyl-2-oxo-2,3-dihydro-1H-benzo[e][1,4]diazepin-5-yl)-benzonitrile] | 47
CN1C(=O)CN=C(c2cccc(C=O)c2)c2cc(-c3ccccc3)ccc21 [Example 9, 3-(1-Methyl-2-oxo-7-phenyl-2,3-dihydro-1H-benzo[e][1,4]diazepin-5-yl)-benzaldehyde] | 84
COc1ccccc1-c1cc2c(cc1OC)NC(=O)CN=C2c1cccc(C#N)c1 [Example 10, 3-[8-Methoxy-7-(2-methoxy-phenyl)-2-oxo-2,3-dihydro-1H-benzo[e][1,4]diazepin-5-yl]-benzonitrile] | 94
COc1ccccc1-c1ccc2c(c1)C(c1cccc(C#N)c1)=NCC(=O)N2C [Example 12, 3-[7-(2-Methoxy-phenyl)-1-methyl-2-oxo-2,3-dihydro-1H-benzo[e][1,4]diazepin-5-yl]-benzonitrile] | 40
COc1cccc(-c2ccc3c(c2)C(c2cccc(C#N)c2)=NCC(=O)N3C)c1 [Example 13, 3-[7-(3-Methoxy-phenyl)-1-methyl-2-oxo-2,3-dihydro-1H-benzo[e][1,4]diazepin-5-yl]-benzonitrile] | 91
COc1ccc(-c2ccc3c(c2)C(c2cccc(C#N)c2)=NCC(=O)N3C)cc1 [Example 14, 3-[7-(4-Methoxy-phenyl)-1-methyl-2-oxo-2,3-dihydro-1H-benzo[e][1,4]diazepin-5-yl]-benzonitrile] | 92
COc1cccc(OC)c1-c1ccc2c(c1)C(c1cccc(C#N)c1)=NCC(=O)N2C [Example 16, 3-[7-(2,6-Dimethoxy-phenyl)-1-methyl-2-oxo-2,3-dihydro-1H-benzo[e][1,4]diazepin-5-yl]-benzonitrile] | 100
CCOc1cc2c(cc1-c1ccccc1)C(c1ccccc1)=NCC(=O)N2CC [Example 18, 8-Ethoxy-1-ethyl-5,7-diphenyl-1,3-dihydro-benzo[e][1,4]diazepin-2-one] | 27
COc1cc2c(cc1-c1ccc(F)cc1)C(c1cccc(C(N)=O)c1)=NCC(=O)N2C [Example 20, 3-[7-(4-Fluoro-phenyl)-8-methoxy-1-methyl-2-oxo-2,3-dihydro-1H-benzo[e][1,4]diazepin-5-yl]-benzamide] | 99
COc1cc2c(cc1-c1cccc(Cl)c1)C(c1cccc(C(N)=O)c1)=NCC(=O)N2C [Example 24, 3-[7-(3-Chloro-phenyl)-8-methoxy-1-methyl-2-oxo-2,3-dihydro-1H-benzo[e][1,4]diazepin-5-yl]-benzamide] | 98
COc1cc2c(cc1-c1ccc(Cl)cc1)C(c1cccc(C(N)=O)c1)=NCC(=O)N2C [Example 25, 3-[7-(4-Chloro-phenyl)-8-methoxy-1-methyl-2-oxo-2,3-dihydro-1H-benzo[e][1,4]diazepin-5-yl]-benzamide] | 97
COc1cc2c(cc1-c1ccco1)C(c1cccc(C(N)=O)c1)=NCC(=O)N2C [Example 26, 3-(7-Furan-2-yl-8-methoxy-1-methyl-2-oxo-2,3-dihydro-1H-benzo[e][1,4]diazepin-5-yl)-benzamide] | 71
COc1ccccc1-c1ccc2c(c1)C(c1cccc(C(N)=O)c1)=NCC(=O)N2C [Example 28, 3-[7-(2-methoxy-phenyl)-1-methyl-2-oxo-2,3-dihydro-1H-benzo[e][1,4]diazepin-5-yl]-benzamide] | 97
COc1cccc(-c2ccc3c(c2)C(c2cccc(C(N)=O)c2)=NCC(=O)N3C)c1 [Example 29, 3-[7-(3-methoxy-phenyl)-1-methyl-2-oxo-2,3-dihydro-1H-benzo[e][1,4]diazepin-5-yl]-benzamide] | 95
COc1ccc(-c2ccc3c(c2)C(c2cccc(C(N)=O)c2)=NCC(=O)N3C)cc1 [Example 30, 3-[7-(4-methoxy-phenyl)-1-methyl-2-oxo-2,3-dihydro-1H-benzo[e][1,4]diazepin-5-yl]-benzamide] | 95
COc1ccccc1-c1cc2c(cc1OC)NC(=O)CN=C2c1cccc(C(N)=O)c1 [Example 36, 3-[8-Methoxy-7-(2-methoxy-phenyl)-2-oxo-2,3-dihydro-1H-benzo[e][1,4]diazepin-5-yl]-benzamide] | 94

same assay, conditions: read-out: PDE2 percentage of inhibition at 10 μM

SMILES | inhibition at 10 µM [%]
COc1cc2c(cc1-c1ccccc1)C(c1cccc(C#N)c1)=NCC(=O)N2C [Example 1, 3-(8-Methoxy-1-methyl-2-oxo-7-phenyl-2,3-dihydro-1H-benzo[e][1,4]diazepin-5-yl)-benzonitrile] | 83
COc1cc2c(cc1-c1ccc(F)cc1)C(c1cccc(C#N)c1)=NCC(=O)N2C [Example 2, 3-[7-(4-Fluoro-phenyl)-8-methoxy-1-methyl-2-oxo-2,3-dihydro-1H-benzo[e][1,4]diazepin-5-yl]-benzonitrile] | 97
COc1ccccc1-c1cc2c(cc1OC)N(C)C(=O)CN=C2c1cccc(C#N)c1 [Example 3, 3-[8-Methoxy-7-(2-methoxy-phenyl)-1-methyl-2-oxo-2,3-dihydro-1H-benzo[e][1,4]diazepin-5-yl]-benzonitrile] | 100
COc1cc2c(cc1-c1cccc(Cl)c1)C(c1cccc(C#N)c1)=NCC(=O)N2C [Example 6, 3-[7-(3-Chloro-phenyl)-8-methoxy-1-methyl-2-oxo-2,3-dihydro-1H-benzo[e][1,4]diazepin-5-yl]-benzonitrile] | 96
COc1cc2c(cc1-c1ccc(Cl)cc1)C(c1cccc(C#N)c1)=NCC(=O)N2C [Example 7, 3-[7-(4-Chloro-phenyl)-8-methoxy-1-methyl-2-oxo-2,3-dihydro-1H-benzo[e][1,4]diazepin-5-yl]-benzonitrile] | 91
CN1C(=O)CN=C(c2cccc(C#N)c2)c2cc(-c3ccccc3)ccc21 [Example 11, 3-(1-Methyl-2-oxo-7-phenyl-2,3-dihydro-1H-benzo[e][1,4]diazepin-5-yl)-benzonitrile] | 79
COc1ccc(OC)c(-c2ccc3c(c2)C(c2cccc(C#N)c2)=NCC(=O)N3C)c1 [Example 15, 3-[7-(2,5-Dimethoxy-phenyl)-1-methyl-2-oxo-2,3-dihydro-1H-benzo[e][1,4]diazepin-5-yl]-benzonitrile] | 98
COc1ccc(-c2ccc3c(c2)C(c2cccc(C#N)c2)=NCC(=O)N3C)c(OC)c1 [Example 17, 3-[7-(2,4-Dimethoxy-phenyl)-1-methyl-2-oxo-2,3-dihydro-1H-benzo[e][1,4]diazepin-5-yl]-benzonitrile] | 98
CN1C(=O)CN=C(c2cccc(C(N)=O)c2)c2cc(-c3ccccc3)ccc21 [Example 27, 3-(1-methyl-2-oxo-7-phenyl-2,3-dihydro-1H-benzo[e][1,4]diazepin-5-yl)-benzamide] | 96
CCCCCCN1C(=O)CN=C(c2cccc(C#N)c2)c2cc(-c3ccccc3OC)c(OC)cc21 [Example 35, 3-[1-Hexyl-8-methoxy-7-(2-methoxy-phenyl)-2-oxo-2,3-dihydro-1H-benzo[e][1,4]diazepin-5-yl]-benzonitrile] | 39
CCCN1C(=O)CN=C(c2cccc(C#N)c2)c2cc(-c3ccccc3OC)c(OC)cc21 [Example 37, 3-[8-Methoxy-7-(2-methoxy-phenyl)-2-oxo-1-propyl-2,3-dihydro-1H-benzo[e][1,4]diazepin-5-yl]-benzonitrile] | 45
